The values that follow come from article PMC4723269 (Archives of biochemistry and biophysics, 2015).

In the experiment the target is T1, Mtm1p (YGR257cp) (Saccharomyces cerevisiae, UniProt P53320).
T1 sequence (P53320 1-366): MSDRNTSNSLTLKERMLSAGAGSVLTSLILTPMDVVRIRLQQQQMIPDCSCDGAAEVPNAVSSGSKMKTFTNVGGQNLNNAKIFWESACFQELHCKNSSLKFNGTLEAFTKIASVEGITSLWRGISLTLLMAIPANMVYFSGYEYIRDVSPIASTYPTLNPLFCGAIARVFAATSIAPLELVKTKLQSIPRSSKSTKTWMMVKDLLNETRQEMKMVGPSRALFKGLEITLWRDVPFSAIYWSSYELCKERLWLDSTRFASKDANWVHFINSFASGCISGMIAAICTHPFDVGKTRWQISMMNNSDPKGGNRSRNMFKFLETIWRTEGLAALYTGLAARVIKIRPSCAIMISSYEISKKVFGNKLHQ
The experiment is described as follows: stoichiometric tryptophan fluorescence quenching titration. The experiment is classed as binding.

The term Kd denotes the concentration at which binding is half-saturated. Low values mean higher affinity, high ones lower affinity. As to `Cc1ncc(COP(=O)(O)O)c(C=O)c1O` [PLP, pyridoxal 5′-phosphate], binding was characterised by a dissociation constant (Kd) of 1900 ± 300 nM.
